Drawing on PubChem BioAssay (NCI), this text covers GI50 and TGI for 14 compounds.

Test systems include MOLT-4 leukemia; UO-31 renal; K-562 leukemia; HCT-15 colon; NCI-H522 lung; CCRF-CEM leukemia; SK-MEL-28 melanoma; SNB-19 CNS; A498 renal; COLO 205 colon.
Common to all, as to assay: DTP human tumour cell line panel, 48 h

Structures are written as SMILES. Where “and” joins values, the source holds several entries; their conditions need not be identical. Equal entries are not always repeated.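 Five concentrations, 48 hours, 96-well plates. At the GI50, growth is halved. TGI denotes the concentration required for complete inhibition of growth.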 Where only a bound is given, the exact number is not on record here.

For orientation: GI50 means the concentration giving 50% growth inhibition. As a reminder, the TGI is the concentration giving total growth inhibition. Take `CN1CCN(Cc2ccc(NC(=O)c3cncc(C#Cc4c(N)ncc5ccccc45)c3)cc2C(F)(F)F)CC1`: the GI50 in the assay with MOLT-4 leukemia was 0.276 µM; in the assay on UO-31 renal, 0.541 µM; in the assay on K-562 leukemia it was 0.005 µM; in the assay on HCT-15 colon it was 0.293 µM; in the assay on NCI-H522 lung, 0.681 µM; with CCRF-CEM leukemia it was 0.14 µM. The GI50 was 0.767 µM in the assay on SK-MEL-28 melanoma, 0.924 µM in the assay with SNB-19 CNS, 0.676 µM in the assay with A498 renal and 0.213 µM in the assay on COLO 205 colon. In addition, the TGI was 1.37 µM in the assay with MOLT-4 leukemia; 1.16 µM in the assay on UO-31 renal; 0.715 µM in the assay with K-562 leukemia; 0.998 µM in the assay on HCT-15 colon; 1.53 µM in the assay with NCI-H522 lung; 1.47 µM with CCRF-CEM leukemia. The TGI came out at 1.48 µM with SK-MEL-28 melanoma, 1.76 µM with SNB-19 CNS, 1.35 µM in the assay with A498 renal and 0.812 µM in the assay with COLO 205 colon.

Take `O=C(Nc1c[nH]c(=O)[nH]c1=O)Oc1ccccc1`: the TGI in the assay on MOLT-4 leukemia, in the assay with UO-31 renal, in the assay with K-562 leukemia, in the assay on HCT-15 colon, in the assay on NCI-H522 lung and in the assay with CCRF-CEM leukemia was more than 100 µM throughout. Moreover, the TGI in the assay with SK-MEL-28 melanoma, in the assay on SNB-19 CNS, with A498 renal and in the assay with COLO 205 colon was more than 100 µM each time.

Take `Nc1nc(SCC#CCCl)c2[nH]cnc2n1`: the GI50 in the assay with MOLT-4 leukemia is 4.11 µM; in the assay on UO-31 renal, 2.39 µM; in the assay on K-562 leukemia, 4.5 µM; in the assay on HCT-15 colon, 3.52 µM; in the assay on NCI-H522 lung, 1.47 µM; in the assay with CCRF-CEM leukemia it was 3.39 µM. In addition, the GI50 is 11.7 µM in the assay on SK-MEL-28 melanoma, 10.5 µM in the assay on SNB-19 CNS, 1.64 µM with A498 renal and 4.4 µM in the assay with COLO 205 colon. For the same compound, the TGI worked out at 30.2 µM in the assay on MOLT-4 leukemia; 11.5 µM with UO-31 renal; 40.5 µM with K-562 leukemia; 17.7 µM with HCT-15 colon; 2.95 µM with NCI-H522 lung; 19.3 µM in the assay on CCRF-CEM leukemia. For the same compound, the TGI stood at 27.2 µM in the assay on SK-MEL-28 melanoma, 23.2 µM in the assay on SNB-19 CNS, 6.87 µM in the assay on A498 renal and 14.9 µM with COLO 205 colon.

Consider `O=C(NOCCO)c1ccc2cncn2c1Nc1ccc(I)cc1F`, for which the GI50 in the assay with MOLT-4 leukemia was > 10 µM and 35.1 µM; in the assay with UO-31 renal, 0.0596 µM and 0.0455 µM; with K-562 leukemia, 0.359 µM and 0.219 µM; in the assay with HCT-15 colon, > 2.24 µM and 1.72 µM; in the assay on NCI-H522 lung, > 3.69 µM and 16.9 µM; in the assay on CCRF-CEM leukemia it was > 10 µM and 28.1 µM. Besides, the GI50 with SK-MEL-28 melanoma was 0.003 µM and < 0.01 µM; in the assay on SNB-19 CNS, > 10 µM and 1.99 µM; with A498 renal, 0.00606 µM and < 0.01 µM; with COLO 205 colon, 0.00235 µM and < 0.01 µM. Also, the TGI in the assay on MOLT-4 leukemia, with UO-31 renal, with K-562 leukemia, in the assay with HCT-15 colon, in the assay with NCI-H522 lung and in the assay on CCRF-CEM leukemia was more than 100 µM each time. For the same compound, the total growth inhibition concentration (TGI) with SK-MEL-28 melanoma is 0.0717 µM and 0.198 µM; in the assay with SNB-19 CNS it was more than 100 µM; in the assay on A498 renal, 0.0542 µM and 0.043 µM; with COLO 205 colon, 0.803 µM.

Take `CN(N=O)c1ccc(/C=C/c2ccnc3ccccc23)cc1`: the TGI with MOLT-4 leukemia, in the assay with UO-31 renal, with K-562 leukemia, with HCT-15 colon, with NCI-H522 lung and in the assay with CCRF-CEM leukemia was more than 100 µM in each case. Also, the TGI in the assay with SK-MEL-28 melanoma, in the assay with SNB-19 CNS, with A498 renal and with COLO 205 colon was more than 100 µM each time.

For `COc1cc(/C=N/NC(=O)c2cnn3c2NC(c2ccccc2)C3)ccc1OCc1ccccc1` (centres undefined), the GI50 in the assay with MOLT-4 leukemia was 1.14 µM; in the assay on UO-31 renal, 1.28 µM; in the assay on K-562 leukemia it was 0.293 µM; in the assay on HCT-15 colon, 0.461 µM; in the assay on NCI-H522 lung, 0.391 µM; in the assay on CCRF-CEM leukemia it was 0.712 µM. Moreover, the GI50 in the assay on SK-MEL-28 melanoma is 1.36 µM; in the assay with SNB-19 CNS, 1.25 µM; in the assay on A498 renal it was 0.226 µM; in the assay with COLO 205 colon, 0.953 µM. The TGI with MOLT-4 leukemia is 12.2 µM; in the assay on UO-31 renal, 8.87 µM; in the assay with K-562 leukemia, 15.3 µM; in the assay with HCT-15 colon, 6.68 µM; in the assay on NCI-H522 lung, 3.9 µM; in the assay with CCRF-CEM leukemia, more than 100 µM. In addition, the TGI in the assay on SK-MEL-28 melanoma amounted to 5.11 µM; in the assay on SNB-19 CNS, 13.7 µM; in the assay with A498 renal, 2.5 µM; in the assay with COLO 205 colon, 4.22 µM.

In the case of `O=C1c2ccccc2-c2cn(Cc3ccccc3)c3cccc(c23)C1c1cccnc1` (centres undefined), the GI50 with MOLT-4 leukemia is 3.2 µM; in the assay on UO-31 renal it was 5.2 µM; with K-562 leukemia it was 2.09 µM; in the assay with HCT-15 colon it was 2.54 µM; in the assay on NCI-H522 lung, 2.28 µM; in the assay on CCRF-CEM leukemia, 2.62 µM. Also, the GI50 with SK-MEL-28 melanoma was 4.12 µM; in the assay on SNB-19 CNS it was 14.3 µM; in the assay with A498 renal, 1.34 µM; in the assay with COLO 205 colon, 2.26 µM. Further, the TGI was more than 50 µM with MOLT-4 leukemia; more than 50 µM in the assay with UO-31 renal; more than 50 µM in the assay on K-562 leukemia; more than 50 µM with HCT-15 colon; 33.4 µM in the assay on NCI-H522 lung; more than 50 µM in the assay on CCRF-CEM leukemia. The TGI in the assay on SK-MEL-28 melanoma was more than 50 µM; in the assay with SNB-19 CNS it was more than 50 µM; in the assay with A498 renal it was 29.9 µM; with COLO 205 colon it was 9.44 µM.

As to `N/N=C1/C(=O)N(c2ccc(Cl)cc2)C(=O)C(=O)C1c1nc2ccccc2s1` (centres undefined), the TGI with MOLT-4 leukemia, with UO-31 renal, in the assay on K-562 leukemia, in the assay with HCT-15 colon, with NCI-H522 lung and with CCRF-CEM leukemia was more than 100 µM throughout. Besides, the TGI with SK-MEL-28 melanoma, in the assay on SNB-19 CNS, in the assay on A498 renal and with COLO 205 colon was more than 100 µM in each case.

Turning to `NN=C1/C(=C\c2ccccc2)CCC/C1=C/c1ccccc1`, the TGI in the assay with MOLT-4 leukemia was 37.4 µM; in the assay with UO-31 renal it was 94.2 µM; in the assay with K-562 leukemia, 44 µM; in the assay on HCT-15 colon, more than 100 µM; in the assay on NCI-H522 lung, 36.1 µM; in the assay with CCRF-CEM leukemia it was 45 µM. The TGI is more than 100 µM in the assay on SK-MEL-28 melanoma, more than 100 µM in the assay on SNB-19 CNS, 95.8 µM in the assay on A498 renal and 71.4 µM with COLO 205 colon.

Consider `CC/C(=C/c1ccc(OC)cc1)[N+](=O)[O-]`, for which the GI50 with MOLT-4 leukemia was 2.7 µM; in the assay on UO-31 renal it was 1.42 µM; with K-562 leukemia, 1.95 µM; with HCT-15 colon, 1.48 µM; in the assay on NCI-H522 lung it was 1.56 µM; in the assay with CCRF-CEM leukemia, 1.96 µM. The GI50 was 1.68 µM in the assay with SK-MEL-28 melanoma, 2.77 µM with SNB-19 CNS, 1.87 µM with A498 renal and 1.89 µM in the assay with COLO 205 colon. Further, the TGI was 7.3 µM with MOLT-4 leukemia; 3.04 µM with UO-31 renal; more than 100 µM with K-562 leukemia; 3.08 µM in the assay on HCT-15 colon; 3.06 µM with NCI-H522 lung; 5.72 µM in the assay with CCRF-CEM leukemia. Further, the TGI came out at 3.44 µM with SK-MEL-28 melanoma, 7.93 µM with SNB-19 CNS, 9.09 µM in the assay on A498 renal and 3.75 µM with COLO 205 colon.

Turning to `COc1cc(C(=O)/C=C/c2c[nH]c3ccccc23)cc(OC)c1OC`, the GI50 was 0.0473 µM in the assay with MOLT-4 leukemia; 0.0396 µM in the assay on UO-31 renal; less than 0.01 µM in the assay on K-562 leukemia; less than 0.0187 µM in the assay on HCT-15 colon; less than 0.0107 µM in the assay with NCI-H522 lung; 0.0254 µM in the assay with CCRF-CEM leukemia. Also, the GI50 in the assay on SK-MEL-28 melanoma is 0.494 µM; with SNB-19 CNS, 0.0342 µM; with A498 renal, less than 0.0119 µM; in the assay on COLO 205 colon, 0.0192 µM. Further, the TGI in the assay with MOLT-4 leukemia was found to be 15.6 µM; in the assay with UO-31 renal, 11.4 µM; in the assay on K-562 leukemia, 12.5 µM; with HCT-15 colon, 19.4 µM; in the assay with NCI-H522 lung, 0.0391 µM; in the assay on CCRF-CEM leukemia, 14 µM. The TGI was 41.9 µM in the assay on SK-MEL-28 melanoma, more than 57.3 µM in the assay with SNB-19 CNS, 0.0414 µM in the assay with A498 renal and 0.132 µM with COLO 205 colon.

Regarding `O=C1c2ccccc2C(=O)c2c1ccc1c3ccccc3n(-c3ccccc3)c21`, the TGI turned out to be 11.1 µM in the assay on MOLT-4 leukemia; 55.1 µM in the assay with UO-31 renal; 29.8 µM in the assay on K-562 leukemia; 32.6 µM with HCT-15 colon; 32.4 µM in the assay with NCI-H522 lung; 14.5 µM with CCRF-CEM leukemia. Besides, the TGI is 34.2 µM in the assay with SK-MEL-28 melanoma, more than 100 µM in the assay on SNB-19 CNS, 71.9 µM in the assay on A498 renal and 34.2 µM in the assay with COLO 205 colon.

On to `N#Cc1cnn(C(=O)c2nn(-c3ccc(Cl)cc3)cc2O)c1N`, for which the GI50 in the assay with MOLT-4 leukemia is 0.373 µM; with UO-31 renal, 0.292 µM; with K-562 leukemia, 0.253 µM; with HCT-15 colon, 0.338 µM; with NCI-H522 lung, 0.173 µM; in the assay with CCRF-CEM leukemia it was 0.279 µM. Besides, the GI50 is 0.63 µM with SK-MEL-28 melanoma, 0.443 µM in the assay on SNB-19 CNS, 0.174 µM in the assay on A498 renal and 0.619 µM with COLO 205 colon. Besides, the TGI in the assay on MOLT-4 leukemia came out at 4.06 µM; in the assay on UO-31 renal, 5.81 µM; in the assay on HCT-15 colon, 13.1 µM; in the assay with NCI-H522 lung, 1.47 µM; with CCRF-CEM leukemia, 4.03 µM; with SK-MEL-28 melanoma it was 27.3 µM. Also, the TGI in the assay with SNB-19 CNS is more than 60.5 µM; in the assay on A498 renal, 0.626 µM; in the assay on COLO 205 colon, 2.13 µM.

Take `Nc1ncc(CN2CCCC2)c(-c2ccccc2O)n1`: the TGI in the assay with MOLT-4 leukemia, in the assay with UO-31 renal, with HCT-15 colon, in the assay with NCI-H522 lung, in the assay with SK-MEL-28 melanoma and in the assay with SNB-19 CNS was more than 750 µM throughout. Moreover, the TGI in the assay with A498 renal and in the assay with COLO 205 colon was more than 750 µM each time. The GI50 with K-562 leukemia and in the assay on CCRF-CEM leukemia was more than 750 µM each time.
